For 34 compounds, class results are on record in patent US20070010671A1, “Novel quinazoline derivatives and methods of treatment related to the use thereof” (priority 2003, published 2007).

The assay addresses MCH receptor (Homo sapiens, UniProt Q99705). Briefly: High throughput functional screening FLIPR/FDSS6000: inhibition of MCH-evoked intracellular Ca2+ changes. The assay is classed as cell-based. The note with it: class by percent of control at 10^-7 M or IC50. The method in brief: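 Fluo4 fluorescence (Ex 488 nm, Em 530 nm) tracked MCH-evoked [Ca2+]i transients over 290 s by FLIPR or FDSS. Cells carried a constitutively active, non-endogenous receptor version. Compounds were added 3 min before a 50 nM MCH challenge.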

On to `CN(C)c1nc(N[C@H]2CC[C@@H](CNC(=O)Nc3ccc(C#N)cc3)CC2)nc2ccccc12` [compound 549, N-(4-cyanophenyl)-N′-[(cis-4-{[4-(dimethylamino)quinazolin-2-yl]amino}cyclohexyl)methyl]urea], for which the class is 1 (Class 1: The value of percent of control at 10^−7 M was less than 40% or the value of IC50 was less than 50 nM.).

As to `CCOc1ccc(NC(=O)NC[C@H]2CC[C@@H](Nc3nc(N(C)C)c4ccccc4n3)CC2)cc1` [compound 550], the class is reported as 3 (Class 3: The value of percent of control at 10^−7 M was more than 60% or the value of IC50 was more than 200 nM.). As to `CN(C)c1nc(N[C@H]2CC[C@@H](CNC(=O)Nc3ccc(F)cc3[N+](=O)[O-])CC2)nc2ccccc12` [compound 551, N-[(cis-4-{[4-(dimethylamino)quinazolin-2-yl]amino}cyclohexyl)methyl]-N′-(4-fluoro-2-nitrophenyl)urea], the class is reported as 2 (Class 2: The value of percent of control at 10^−7 M was from 40% to 60% or the value of IC50 was from 50 nM to 200 nM.).

For the compound `CN(C)c1nc(N[C@H]2CC[C@@H](CNC(=O)Nc3ccc(F)c(C(F)(F)F)c3)CC2)nc2ccccc12` [compound 552], the class is reported as 3 (Class 3: The value of percent of control at 10^−7 M was more than 60% or the value of IC50 was more than 200 nM.). Next, `CN(C)c1nc(N[C@H]2CC[C@@H](CNC(=O)NCc3ccc(F)cc3)CC2)nc2ccccc12` [compound 553, N-[(cis-4-{[4-(dimethylamino)quinazolin-2-yl]amino}cyclohexyl)methyl]-N′-(4-fluorobenzyl)urea]: 2 (Class 2: The value of percent of control at 10^−7 M was from 40% to 60% or the value of IC50 was from 50 nM to 200 nM.). Next, `CCCCCCCOc1ccc(NC(=O)NC[C@H]2CC[C@@H](Nc3nc(N(C)C)c4ccccc4n3)CC2)cc1` [compound 554]: 3 (Class 3: The value of percent of control at 10^−7 M was more than 60% or the value of IC50 was more than 200 nM.). Under `CN(C)c1nc(N[C@H]2CC[C@@H](CNC(=O)Nc3ccc(I)cc3)CC2)nc2ccccc12` [compound 555, N-[(cis-4-{[4-(dimethylamino)quinazolin-2-yl]amino}cyclohexyl)methyl]-N′-(4-iodophenyl)urea] stands 2 (Class 2: The value of percent of control at 10^−7 M was from 40% to 60% or the value of IC50 was from 50 nM to 200 nM.). For the compound `COc1ccc(NC(=O)NC[C@H]2CC[C@@H](Nc3nc(N(C)C)c4ccccc4n3)CC2)c(C)c1` [compound 556], the class is recorded as 2 (Class 2: The value of percent of control at 10^−7 M was from 40% to 60% or the value of IC50 was from 50 nM to 200 nM.). As for `COc1ccc(NC(=O)NC[C@H]2CC[C@@H](Nc3nc(N(C)C)c4ccccc4n3)CC2)c([N+](=O)[O-])c1` [compound 557], the class was 3 (Class 3: The value of percent of control at 10^−7 M was more than 60% or the value of IC50 was more than 200 nM.). `Cc1ccc(NC(=O)NC[C@H]2CC[C@@H](Nc3nc(N(C)C)c4ccccc4n3)CC2)cc1[N+](=O)[O-]` [compound 558, N-[(cis-4-{[4-(dimethylamino)quinazolin-2-yl]amino}cyclohexyl)methyl]-N′-(4-methyl-3-nitrophenyl)urea]: the class is recorded as 2 (Class 2: The value of percent of control at 10^−7 M was from 40% to 60% or the value of IC50 was from 50 nM to 200 nM.).

For `Cc1ccc(CNC(=O)NC[C@H]2CC[C@@H](Nc3nc(N(C)C)c4ccccc4n3)CC2)cc1` [compound 559], the class is recorded as 3 (Class 3: The value of percent of control at 10^−7 M was more than 60% or the value of IC50 was more than 200 nM.). Next, `CCCCOc1ccc(NC(=O)NC[C@H]2CC[C@@H](Nc3nc(N(C)C)c4ccccc4n3)CC2)cc1` [compound 560]: 3 (Class 3: The value of percent of control at 10^−7 M was more than 60% or the value of IC50 was more than 200 nM.); `CCCCc1ccc(NC(=O)NC[C@H]2CC[C@@H](Nc3nc(N(C)C)c4ccccc4n3)CC2)cc1` [compound 561]: 3 (Class 3: The value of percent of control at 10^−7 M was more than 60% or the value of IC50 was more than 200 nM.); `CN(C)c1nc(N[C@H]2CC[C@@H](CNC(=O)Nc3ccc(-c4ccccc4)cc3)CC2)nc2ccccc12` [compound 562]: 3 (Class 3: The value of percent of control at 10^−7 M was more than 60% or the value of IC50 was more than 200 nM.). Next, `COc1cc(OC)c(NC(=O)NC[C@H]2CC[C@@H](Nc3nc(N(C)C)c4ccccc4n3)CC2)cc1Cl` [compound 563]: 3 (Class 3: The value of percent of control at 10^−7 M was more than 60% or the value of IC50 was more than 200 nM.). Next, `COc1ccc(Cl)cc1NC(=O)NC[C@H]1CC[C@@H](Nc2nc(N(C)C)c3ccccc3n2)CC1` [compound 564]: 3 (Class 3: The value of percent of control at 10^−7 M was more than 60% or the value of IC50 was more than 200 nM.); `Cc1ccc(Cl)cc1NC(=O)NC[C@H]1CC[C@@H](Nc2nc(N(C)C)c3ccccc3n2)CC1` [compound 565]: 2 (Class 2: The value of percent of control at 10^−7 M was from 40% to 60% or the value of IC50 was from 50 nM to 200 nM.); `CN(C)c1nc(N[C@H]2CC[C@@H](CNC(=O)Nc3cc(Cl)ccc3[N+](=O)[O-])CC2)nc2ccccc12` [compound 566]: 3 (Class 3: The value of percent of control at 10^−7 M was more than 60% or the value of IC50 was more than 200 nM.).

With `Cc1ccc(F)cc1NC(=O)NC[C@H]1CC[C@@H](Nc2nc(N(C)C)c3ccccc3n2)CC1` [compound 567, N-[(cis-4-{[4-(dimethylamino)quinazolin-2-yl]amino}cyclohexyl)methyl]-N′-(5-fluoro-2-methylphenyl)urea], the class was 2 (Class 2: The value of percent of control at 10^−7 M was from 40% to 60% or the value of IC50 was from 50 nM to 200 nM.). Next, `CN(C)c1nc(N[C@H]2CC[C@@H](CNC(=O)Nc3ccc4c(c3)CCC4)CC2)nc2ccccc12` [compound 568]: 3 (Class 3: The value of percent of control at 10^−7 M was more than 60% or the value of IC50 was more than 200 nM.). Next, `CN(C)c1nc(N[C@H]2CC[C@@H](CNC(=O)Nc3ccc4c(c3)Cc3ccccc3-4)CC2)nc2ccccc12` [compound 569]: 3 (Class 3: The value of percent of control at 10^−7 M was more than 60% or the value of IC50 was more than 200 nM.); `CN(C)c1nc(N[C@H]2CC[C@@H](CNC(=O)NC3c4ccccc4-c4ccccc43)CC2)nc2ccccc12` [compound 570]: 3 (Class 3: The value of percent of control at 10^−7 M was more than 60% or the value of IC50 was more than 200 nM.); `CN(C)c1nc(N[C@H]2CC[C@@H](CNC(=O)NCCc3ccccc3)CC2)nc2ccccc12` [compound 571]: 3 (Class 3: The value of percent of control at 10^−7 M was more than 60% or the value of IC50 was more than 200 nM.).

With `CN(C)c1nc(N[C@H]2CC[C@@H](CNC(=O)NC3CCCC3)CC2)nc2ccccc12` [compound 572, N-cyclopentyl-N′-[(cis-4-{[4-(dimethylamino)quinazolin-2-yl]amino}cyclohexyl)methyl]urea], the class was 2 (Class 2: The value of percent of control at 10^−7 M was from 40% to 60% or the value of IC50 was from 50 nM to 200 nM.).

With `CN(C)c1nc(N[C@H]2CC[C@@H](CNC(=O)NC(c3ccccc3)c3ccccc3)CC2)nc2ccccc12` [compound 573, N-[(cis-4-{[4-(dimethylamino)quinazolin-2-yl]amino}cyclohexyl)methyl]-N′-(diphenylmethyl)urea], the class is 1 (Class 1: The value of percent of control at 10^−7 M was less than 40% or the value of IC50 was less than 50 nM.). Next, `COC(=O)c1ccc(NC(=O)NC[C@H]2CC[C@@H](Nc3nc(N(C)C)c4ccccc4n3)CC2)cc1` [compound 574]: 3 (Class 3: The value of percent of control at 10^−7 M was more than 60% or the value of IC50 was more than 200 nM.); `CN(C)c1nc(N[C@H]2CC[C@@H](CNC(=O)Nc3ccccc3OC(F)(F)F)CC2)nc2ccccc12` [compound 576]: 3 (Class 3: The value of percent of control at 10^−7 M was more than 60% or the value of IC50 was more than 200 nM.). Consider `CC(=O)c1cccc(NC(=S)NC[C@H]2CC[C@@H](Nc3nc(N(C)C)c4ccccc4n3)CC2)c1` [compound 577], for which the class was 3 (Class 3: The value of percent of control at 10^−7 M was more than 60% or the value of IC50 was more than 200 nM.).

On to `CC(=O)c1ccc(NC(=S)NC[C@H]2CC[C@@H](Nc3nc(N(C)C)c4ccccc4n3)CC2)cc1` [compound 578], for which the class is listed as 3 (Class 3: The value of percent of control at 10^−7 M was more than 60% or the value of IC50 was more than 200 nM.). Under `CN(C)c1nc(N[C@H]2CC[C@@H](CNC(=S)Nc3cc(C(F)(F)F)cc(C(F)(F)F)c3)CC2)nc2ccccc12` [compound 579] stands 3 (Class 3: The value of percent of control at 10^−7 M was more than 60% or the value of IC50 was more than 200 nM.). Turning to `CN(C)c1nc(N[C@H]2CC[C@@H](CNC(=S)NCc3ccccc3)CC2)nc2ccccc12` [compound 580], the class was 3 (Class 3: The value of percent of control at 10^−7 M was more than 60% or the value of IC50 was more than 200 nM.). Next, `CN(C)c1nc(N[C@H]2CC[C@@H](CNC(=S)Nc3cccc(Br)c3)CC2)nc2ccccc12` [compound 581]: 3 (Class 3: The value of percent of control at 10^−7 M was more than 60% or the value of IC50 was more than 200 nM.).

Consider `CN(C)c1nc(N[C@H]2CC[C@@H](CNC(=S)Nc3ccc(Br)cc3)CC2)nc2ccccc12` [compound 582], for which the class was 3 (Class 3: The value of percent of control at 10^−7 M was more than 60% or the value of IC50 was more than 200 nM.). Next, `CCCCNC(=S)NC[C@H]1CC[C@@H](Nc2nc(N(C)C)c3ccccc3n2)CC1` [compound 583]: 3 (Class 3: The value of percent of control at 10^−7 M was more than 60% or the value of IC50 was more than 200 nM.).
